Experimental data taken from ChEMBL document CHEMBL3297738, “Anmindenols A and B, inducible nitric oxide synthase inhibitors from a marine-derived Streptomyces sp” (J Nat Prod, 2014).
Calls of active or inactive are those of the source. The rule behind the calls is not given here.

Experiments:
Format in all cases: functional, cell-based
RAW264.7 = assay: Inhibition of LPS-induced nitric oxide production in mouse RAW264.7 cells after 20 hrs by Griess assay; conditions: RAW264.7, 20 h
A498 = assay: Cytotoxicity against human A498 cells up to 100 uM
MiaPaCa = assay: Cytotoxicity against human MiaPaCa cells up to 100 uM
PANC-1 = assay: Cytotoxicity against human PANC1 cells up to 100 uM

Row | IC50 (RAW264.7) | Compound | Activity (A498) | Activity (MiaPaCa) | Activity (PANC-1)
1 | 19 µM | Cc1ccc2c(c1)/C(=C/C(C)C)C[C@]2(O)CO | inactive | inactive | inactive
2 | 23 µM | Cc1ccc2c(c1)/C(=C/C(C)C)C=C2CO | inactive | inactive | inactive
